ChEMBL document CHEMBL3232786, “Therapeutic utility of cannabinoid receptor type 2 (CB(2)) selective agonists” (J Med Chem, 2013)
pEC50, pKi: −log10 of the molar value.

Tests used:
[1] = biological target: T1, Cannabinoid receptor 1 (Homo sapiens, UniProt P21554); test: Agonist activity at human CB1 receptor expressed in human SK-N-MC cells at 1 uM by CRE-beta galactosidase reporter gene assay; format: functional, cell-based
[2] = biological target: T1, Cannabinoid receptor 1; test: Agonist activity at human CB1 receptor expressed in CHO-K1 cells assessed as inhibition of forskolin-induced cAMP accumulation by TR-FRET assay; format: functional, cell-based
[3] = biological target: T2, Cannabinoid receptor 2 (Homo sapiens, UniProt P34972); test: Agonist activity at human CB2 receptor expressed in CHO-K1 cells assessed as inhibition of forskolin-induced cAMP accumulation by TR-FRET assay; format: functional, cell-based
T2 sequence (P34972 whole entry): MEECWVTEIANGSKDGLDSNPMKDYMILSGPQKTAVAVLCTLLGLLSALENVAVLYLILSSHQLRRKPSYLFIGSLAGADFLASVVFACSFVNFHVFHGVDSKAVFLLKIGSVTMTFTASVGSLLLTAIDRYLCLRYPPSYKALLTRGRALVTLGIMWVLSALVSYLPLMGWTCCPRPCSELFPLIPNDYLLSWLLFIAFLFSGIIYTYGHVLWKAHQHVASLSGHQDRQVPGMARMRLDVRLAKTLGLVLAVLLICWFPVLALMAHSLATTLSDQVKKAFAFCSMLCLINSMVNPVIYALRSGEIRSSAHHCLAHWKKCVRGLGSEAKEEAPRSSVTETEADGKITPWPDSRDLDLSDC

[4] = biological target: T1, Cannabinoid receptor 1; test: Agonist activity at human CB1 receptor
[5] = biological target: T2, Cannabinoid receptor 2; test: Agonist activity at human CB2 receptor
[6] = biological target: T1, Cannabinoid receptor 1; test: Agonist activity at CB1 receptor (unknown origin)
[7] = biological target: T2, Cannabinoid receptor 2; test: Agonist activity at human CB2 receptor expressed in Sf9 membranes assessed as effect on [35S]-GTPgammaS binding after 30 mins by scintillation counting; format: functional, cell membranes
[8] = biological target: T1, Cannabinoid receptor 1; test: Agonist activity at human CB1 receptor assessed as inhibition of forskolin-induced cAMP production preincubated for 15 mins followed by forskolin challenge measured after 30 mins by HTRF assay; format: functional
[9] = biological target: T2, Cannabinoid receptor 2; test: Agonist activity at human CB2 receptor assessed as inhibition of forskolin-induced cAMP production preincubated for 15 mins followed by forskolin challenge measured after 30 mins by HTRF assay; format: functional
[10] = biological target: T1, Cannabinoid receptor 1; test: Binding affinity to CB1 receptor (unknown origin)
[11] = biological target: T2, Cannabinoid receptor 2; test: Binding affinity to CB2 receptor (unknown origin)
[12] = biological target: T2, Cannabinoid receptor 2; test: Binding affinity to human CB2 receptor
[13] = biological target: T2, Cannabinoid receptor 2; test: Displacement of [3H]-CP55940 from human CB2 receptor expressed in HEK293 cells after 90 mins by liquid scintillation counting; format: cell-based
[14] = biological target: T1, Cannabinoid receptor 1; test: Displacement of [3H]-CP55940 from human CB1 receptor expressed in HEK293 cells after 90 mins by liquid scintillation counting; format: cell-based
[15] = species on record: Homo sapiens; test: Selectivity ratio of Ki for human CB1 receptor to Ki for human CB2 receptor
[16] = Half life in Sprague-Dawley rat at 10 mg/kg, po by UV-HPLC analysis; format: ADME, organism-based; design: dose 10 mg/kg, route oral; conditions: in vivo
[17] = AUC (0 to infinity) in Sprague-Dawley rat at 10 mg/kg, po by UV-HPLC analysis; format: ADME, organism-based; design: time infinity, dose 10 mg/kg, route oral; conditions: plasma
[18] = Cmax in Sprague-Dawley rat at 10 mg/kg, po by UV-HPLC analysis; format: ADME, organism-based; design: dose 10 mg/kg, route oral; conditions: in vivo
[19] = biological target: T2, Cannabinoid receptor 2; test: Agonist activity at human CB2 receptor assessed as inhibition of forskolin-induced cAMP production preincubated for 15 mins followed by forskolin challenge measured after 30 mins by HTRF assay relative to control; format: functional
[20] = biological target: T1, Cannabinoid receptor 1; test: Binding affinity to human CB1 receptor
[21] = biological target: T3, Cannabinoid receptor 1 (Rattus norvegicus, UniProt P20272); test: Displacement of [3H]-CP55940 from CB1 receptor of rat cerebellar membranes by liquid scintillation counting in presence of serine protease inhibitor PMSF; design: species or system Cerebellum, Membrane
T3 sequence (P20272 whole entry): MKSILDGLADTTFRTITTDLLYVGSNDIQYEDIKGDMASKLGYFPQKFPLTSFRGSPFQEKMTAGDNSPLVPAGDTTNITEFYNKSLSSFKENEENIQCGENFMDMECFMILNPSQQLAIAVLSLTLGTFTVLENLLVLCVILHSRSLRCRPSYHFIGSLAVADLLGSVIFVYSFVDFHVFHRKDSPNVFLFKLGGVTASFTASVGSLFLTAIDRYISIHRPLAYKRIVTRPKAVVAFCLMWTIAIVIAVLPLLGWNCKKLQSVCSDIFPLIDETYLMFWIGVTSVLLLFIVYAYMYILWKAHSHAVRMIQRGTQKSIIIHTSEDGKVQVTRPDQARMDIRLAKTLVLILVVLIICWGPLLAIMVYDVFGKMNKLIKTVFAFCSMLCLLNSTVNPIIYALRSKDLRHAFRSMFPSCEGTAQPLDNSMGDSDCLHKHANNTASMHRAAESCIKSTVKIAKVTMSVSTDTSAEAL

[22] = biological target: T4, Cannabinoid receptor 2 (Rattus norvegicus, UniProt Q9QZN9); test: Displacement of [3H]-CP55940 from CB2 receptor of rat spleen membranes by liquid scintillation counting in presence of serine protease inhibitor PMSF; format: tissue-based, Membrane
T4 sequence (Q9QZN9 whole entry): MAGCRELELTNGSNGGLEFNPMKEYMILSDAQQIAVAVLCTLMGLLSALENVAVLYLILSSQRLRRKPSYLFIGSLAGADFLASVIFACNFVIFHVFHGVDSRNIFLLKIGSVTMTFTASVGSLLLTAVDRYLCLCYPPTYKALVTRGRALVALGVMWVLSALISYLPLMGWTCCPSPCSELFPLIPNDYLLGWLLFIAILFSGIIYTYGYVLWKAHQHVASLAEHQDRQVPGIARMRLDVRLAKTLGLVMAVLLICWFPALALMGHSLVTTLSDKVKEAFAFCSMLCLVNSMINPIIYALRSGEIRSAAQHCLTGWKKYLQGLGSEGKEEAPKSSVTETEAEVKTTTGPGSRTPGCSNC

[23] = species on record: Rattus norvegicus; test: Selectivity ratio of Ki for CB2 receptor of rat spleen membranes to Ki for CB1 receptor of rat cerebellar membranes; format: tissue-based
[24] = Selectivity ratio of Ki for rat CB1 receptor to Ki for human CB2 receptor
[25] = biological target: T3, Cannabinoid receptor 1; test: Binding affinity to rat CB1 receptor
[26] = biological target: T4, Cannabinoid receptor 2; test: Inverse agonist activity at rat CB2 receptor expressed in CHO-K1 cells assessed as inhibition of forskolin-induced cAMP accumulation; format: functional, cell-based

T1 sequence (P21554 whole entry): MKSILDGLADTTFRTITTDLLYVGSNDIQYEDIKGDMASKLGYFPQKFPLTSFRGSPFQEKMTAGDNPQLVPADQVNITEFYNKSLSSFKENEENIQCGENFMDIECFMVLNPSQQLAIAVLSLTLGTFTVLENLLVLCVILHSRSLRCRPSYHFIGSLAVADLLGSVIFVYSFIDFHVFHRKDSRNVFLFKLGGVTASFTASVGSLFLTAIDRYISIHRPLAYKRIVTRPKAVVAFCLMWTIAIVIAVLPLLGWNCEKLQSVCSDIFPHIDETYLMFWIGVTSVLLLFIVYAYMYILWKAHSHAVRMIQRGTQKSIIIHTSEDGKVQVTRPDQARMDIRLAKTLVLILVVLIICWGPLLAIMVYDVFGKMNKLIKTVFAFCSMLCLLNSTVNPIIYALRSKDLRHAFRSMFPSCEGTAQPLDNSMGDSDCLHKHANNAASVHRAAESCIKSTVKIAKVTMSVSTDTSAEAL

With O=C(NCC12CC3CC(CC(C3)C1)C2)c1nn(C2CCCCC2)c2c1CCCCCC2 the Activity [1] was 71%.
With O=S(=O)(c1ccc2c(c1)C1C3CCC(C3)C1C(c1ccccc1)N2)N1CCOCC1 (stereo not given) the pEC50 [2] was under 5.00.
In the case of O=C(NC1CCCC1)c1ccc2c(c1)N(S(=O)(=O)c1ccc(F)cc1)CCS2, the pEC50 [2] was 8.00 and the pEC50 [3] was 9.00.
COc1ccc2c(c1)c(CCN1CCOCC1)c(C)n2C(=O)c1cccc(Cl)c1Cl gave a pKi [4] of 5.32 and a pKi [5] of 8.42.
In the case of CCc1c(C)cc(C(=O)NC2(C(=O)O)CCCCC2)c(=O)n1Cc1ccc(F)cc1 [S-777469], the pKi [6] was 5.34.
Compound COc1ccc(C(=O)c2cc3cc(C)n(CCN4CCOCC4)c3s2)cc1 has a pEC50 [7] of over 7.00.
For CNC(=O)[C@@H](NC(=O)c1nc(-c2ccccc2)n2c1CN(C)CCC2)C(C)(C)C, the pEC50 [8] was under 5.00 and the pEC50 [9] was 8.00.
For CCCn1c(C)c(C(=O)c2cccc3cc(OC)ccc23)c2ccccc21, the pKi [10] was under 5.00.
With COc1cccc2c(C(=O)N[C@@H]3C(C)(C)[C@@H]4CC[C@@]3(C)C4)nn(CCN3CCOCC3)c12 the pKi [10] was 7.62 and the pKi [11] was 8.70.
CCCCC/C=C\C/C=C\C/C=C\C/C=C\CCCCOC(CO)CO gave a pKi [12] of 5.52.
Compound CCNC(=O)c1c(NC(=O)C23CC4CC(CC(C4)C2)C3)sc2c1CCOC2 has a pEC50 [13] of 7.68 and a pEC50 [14] of under 8.82.
COCCN1CC(C)(C)S/C1=N\C(=O)c1cc(Cl)ccc1OC showed a Ratio Ki [15] of 10.
CC(C)(C)NC(=O)c1nn(-c2ccc(Cl)cc2)c2c1C1CCC2C1 (stereo not given) showed a half-life [16] of 7.3 h, an AUC(0-inf) [17] of 1550 ng·h/mL and a Cmax [18] of 131 ng/mL.
Work on CC(NC(=O)c1nc(N2CCOCC2)n2ccccc12)C(C)(C)C (stereo not given) yielded a pEC50 [8] of under 4.77, a pEC50 [9] of 8.27 and an Emax [19] of 99.5%. For the same compound, the Ratio Ki [15] was over 3100.
COc1ccc(-c2nnc(NC(=O)C(C)(C)S(=O)(=O)C3CCOCC3)[nH]2)cc1 gave a pEC50 [8] of under 4.70.
Work on CCCCCCC(C)(C)c1cc(O)c2c(c1)OC(C)(C)[C@@H]1CC=C(CO)C[C@@H]21 yielded a pKi [20] of 9.14.
CCCCC/C=C\C/C=C\C/C=C\C/C=C\CCCC(=O)NCCCl gave a pKi [21] of 8.85, a pKi [22] of under 5.70 and a Ratio Ki [23] of over 1430.
Compound CCCCCCC(C)(C)c1cc(O)c2c(c1)OC(C)(C)[C@@H]1CC=C(OO)C[C@@H]21 has a Ratio Ki [24] of 38, a pKi [12] of 10.49 and a pKi [25] of 8.92.
In the case of Clc1ccc(-c2nc(N3CCCCC3)c3ccccc3n2)c(Cl)c1, the pKi [9] was over 6.00.
COc1cccc2c(C(=O)c3ccc(Br)c4ccccc34)c(C)n(CCN3CCOCC3)c12 gave a pKi [10] of under 6.00.
With CC1OCc2sc(NC(=O)C3C(C)(C)C3(C)C)c(C(=O)N3CC(F)(F)C3)c21 (stereo not given) the Ratio Ki [15] was 10.
For CCCCCCC(C)(C)c1cc(O)c2c(c1)OC(C)(C)[C@@H]1CC=C(C)C[C@@H]21, the Ratio Ki [15] was 1.7.
With CCCC(C)(C)c1ccc2c(c1)OC(C)(C)[C@@H]1CC=C(C)C[C@@H]21 the Ratio Ki [24] was 200.
Work on FC1(F)CCN(Cc2nc(-c3cccc(C(F)(F)F)c3)n3ccccc23)CC1 yielded a pEC50 [9] of 7.77.
In the case of CN1CCCC[C@@H]1Cn1cc(C(=O)c2cc([N+](=O)[O-])ccc2I)c2ccccc21, the pEC50 [26] was 6.50.
CCCCCCC(C)(C)c1cc(O)c2c(c1)OC(C)(C)C1CCC(=O)CC21 (stereo not given) gave a Ratio Ki [15] of 1.2.
